In series [1] the target is T1, hKv7.2/hKv7.3 (Homo sapiens, UniProt O43525+O43526).
T1 construct: P2A self-cleaving linker (remnant after ribosomal skipping); expressed in transfected cells; vector pcDNA5/FRT/TO
As to the kind of experiment: Thallium influx assay for potassium channel activation. The format is cell-based. The following applies: HEK-hKv7.2/hKv7.3 cells; AUC readout normalized to a reference compound. The protocol: (§1) A synthesized cDNA fragment encoding human Kv7.3 and human Kv7.2 separated by a P2A sequence was inserted into the pcDNA5/FRT/TO vector using the BamHI and XhoI restriction sites. The construct was then transfected into HEK Flp-In 293 cells using Lipofectamine2000. The transfected cells were grown for 48 hours in DMEM containing 10% (v/v) FBS and 1% PenStrep and subsequently maintained under selection in DMEM containing 10% (v/v) FBS, 1% PenStrep and 200 ug/mL Hygromycin B at 37° C. in a humidified atmosphere of 5% CO2.
The thallium influx assay for potassium channel activation was performed analogously to a published procedure (C. D. Weaver, et al., J Biomol Screen 2004, 9, 671-677) using the FLIPR Potassium Assay kit (Molecular Devices). HEK-hKv7.2/hKv7.3 cells were plated onto 96-well, black-walled, clear-bottomed culture plates (Corning, Acton, MA, USA) at a density of 80,000 cells/well (100 μl/well) if the cells were assayed the following day, or 40,000 cells/well (100 μl/well) if the cells were assayed two days after seeding.
On the assay day, the medium was removed after which 50 uL/well of test compound diluted to 2× final concentration in HBSS containing 20 mM HEPES, and 50 uL/well of 2× dye load buffer were added. The cells were then incubated for 60 min at room temperature in the dark. Chloride-free stimulation buffer containing Tl^+ and K^+ at 5× final concentration (5× concentration: 5 mM in both cases) and test compound at 1× final concentration, were prepared during the incubation. The cells were then assayed in a FDSS7000EX Functional Drug Screening System (Hamamatsu). Following 60 sec of baseline fluorescence signal reading at 0.1 Hz, and 10 sec at 1 Hz, 25 uL/well of stimulation buffer were added and the fluorescence continuously measured for 50 sec at 1 Hz followed, by 4 min at 0.1 Hz. Compound effect was quantified using AUC as readout and normalized to a reference compound, which was included on each plate.

Another series has as its system rats. The series can be described thus: Maximal electroshock seizure threshold test (MEST) in rats. The format is in vivo, rat. The conditions noted are these: for seizure threshold: rats. The protocol: (§2) Significant differences between drug-treated animals and controls were assessed according to Litchfield and Wilcoxon, Pharmacol Exp Ther. 1949; 96(1):99-113
For orientation: The maximal electroshock test induces tonic seizures with an electrical stimulus.

Another series concerns mice. As to the kind of experiment: Maximal electroshock seizure threshold test (MEST) in mice. The format is in vivo, mouse. The conditions noted are these: corneal electrodes. The protocol: as §2
The target in series [2] is T1, hKv7.2/hKv7.3. As to the kind of experiment: Automated whole cell patch-clamp of stable HEK-hKv7.2/hKv7.3 cell line. The format is cell-based. The conditions noted are these: functional test of the cell line. The protocol: as §1

In the case of `C[C@H](NC(=O)CC(C)(O)C(F)(F)C(F)F)c1cccc(OC(F)(F)F)c1` (single isomer, unassigned) [Example 10a], the response at hKv7.2/hKv7.3 [1] was half-maximal at 0.65 µM (EC50).

On to `C[C@H](NC(=O)CC1(O)CC(F)(F)C1)c1cccc(OC(F)(F)F)c1` [Example 5, (S)-2-(3,3-difluoro-1-hydroxycyclobutyl)-N-(1-(3-(trifluoromethoxy)phenyl)ethyl) acetamide], for which the “seizure threshold CC50 (current producing tonic hind limb extensor seizures in 50% of animals)” value in the series on rats (rat, acute peroral administration 30 min prior to test, all doses tested 0.03-1 mg/kg, relative to vehicle) is reported as “significantly increased”. Further, the seizure threshold result was “significant increase” in the series on rats (pretreatment with a single acute administration) and “significant increase” in the series with rats (repeated administration (once daily, 15 days)). Moreover, the “current required to induce an electroconvulsion, i.e. seizure threshold” value in the series on mice is “dose-dependent significant increase”.

Take `C[C@H](NC(=O)C[C@@](C)(O)CC(F)(F)F)c1cccc(OC(F)(F)F)c1` (single isomer, unassigned) [Example 13a]: the EC50 (commonly the concentration giving half of the maximal effect) at hKv7.2/hKv7.3 [1] was 1.9 µM.

On hKv7.2/hKv7.3 [1], `C[C@H](NC(=O)C[C@H](O)C1CC(F)(F)C1)c1cccc(OC(F)(F)F)c1` [Example 11a, 3-(3,3-Difluorocyclobutyl)-3-hydroxy-N—((S)-1-(3-(trifluoromethoxy)phenyl)ethyl) propanamide] showed an EC50 of 1.5 µM.

In the case of `O=C1c2ccccc2C(Cc2ccncc2)(Cc2ccncc2)c2ccccc21` [XE991], the “effect on Kv7-current” value on hKv7.2/hKv7.3 [2] was “sensitive”.

As for `CCOC(=O)Nc1ccc(NCc2ccc(F)cc2)cc1N` [Retigabine, N-(2-amino-4-(4-fluorobenzylamino)-phenyl) carbamic acid ethyl ester], at hKv7.2/hKv7.3 [2], the “effect on Kv7-current” value is “potentiated”.

Values taken from patent publication US12508239B2, “Alcohol derivatives as Kv7 potassium channel openers for use in epilepsy or seizures” (H. Lundbeck A/S, priority 2019, dated 2025).
